Values of other authors, collected in patent US20070232589A1, “Pharmaceutical Composition And Method For Treating Neurodegenerative Disorders” (Myriad Genetics, Incorporated, priority 2004, published 2007).
Where two headings read alike, the source gives them in different places.

How the values were obtained:
[1] = clinical trial; rofecoxib 25 mg daily
Aβ42 [2] = conditions: CHO cells
[3] = 50 mg and 100 mg doses, human subjects
Aβ42 [4] = conditions: transgenic mouse model
[5] = in vivo
[6] = in vivo excitotoxic model
[7] = patients having mild cognitive impairment

For `COc1ccc2cc([C@H](C)C(=O)O)ccc2c1` [Naproxen], the “efficacy for treating AD” value [1] is listed as “failed to show efficacy”.

For `C[C@@H](C(=O)O)c1ccc(-c2ccccc2)c(F)c1` [(R)-2-(2-fluoro-4-biphenylyl)propionic acid], the Aβ42 lowering (Aβ42 [2]) is given as “lower Aβ42”, the “inhibition of COX activity” value (COX) is given as “negligibly inhibits COX activity” and the analgesic effect [3] is given as “produced an analgesic effect”. For the same compound, the Aβ42 lowering (Aβ42 [4]) was “lower Aβ42”.

In the case of `CC12CC3CC(C)(C1)CC(N)(C3)C2` [memantine], the “efficacy in treating mild-to-moderate AD” value [5] is given as “showed efficacy”.

In the case of `CS(=O)(=O)c1ccc(C2=C(c3ccccc3)C(=O)OC2)cc1` [rofecoxib], the neuroprotection [6] is given as “provides neuroprotection”, the “efficacy for treating AD” value [1] is given as “failed to show efficacy” and the “prevention of development of Alzheimer's disease” value [7] is given as “failed to prevent the development of Alzheimer's disease”. The “patients who developed AD” value ([7]; placebo 4.5%) was 6.4%.
